Measurements from patent publication US9244073B2, “Assays for detecting enzymatic activity” (Wellstat Diagnostics, LLC, priority 2011, dated 2016).
Primed or numbered codes have the meaning given here. KLCBiot = lysine with long-chain biotin conjugated to the side-chain primary amine (Lysine-Long-Chain-Biotin); mPeg2 = hydrophilic 9-atom polyethylene (PEG) spacer; Bz′ = not defined here

Columns and labels:
Format in all cases: biochemical
[1] = test system: FXa; test: Detecting FXa activity with biotin- and TAG Plus-conjugated substrate (ECL, loss of signal on cleavage)
Source text: FXa activity can be measured through the use of peptides that include a FXa recognition sequence, a biotin at one terminus of the peptide and a BV-TAG Plus at the other terminus. In this embodiment, FXa recognizes and specifically cleaves the peptide between the arginine amino acid and the next amino acid toward the carboxy terminus, e.g., between arginine and glycine in peptide probe sequences I and II below. The cleavage by FXa results in the separation of biotin from the BV-TAG Plus. When the biotin is captured with streptavidin coated microparticles (Dynabeads M280-SA, Invitrogen, Cat: 112-06D), this loss of BV-TAG Plus can be measured quantitatively by an ECL instrument such as the M-SERIES® M1MR Analyzer (BioVeris Corporation, Gaithersburg, Md.).
A FXa activity calibrator curve was set up in a 96-well U bottom microtiter plate containing a serial dilution of FXa in an assay buffer [20 mM Tris-HCl (pH 7.2), 100 mM NaCl, 0.5% BSA and 6.0 mM CaCl2], with either peptide probe sequence I or II and M280-SA beads (Dynabeads M280-SA, Invitrogen, Cat: 112-06D). To each well was added 50 μL of 2-fold serial dilutions of FXa from 5000, 2500, 1250, 625, 313, 156 and 78.1 ng/mL and 50 μL of peptide probe (sequence I or II) at 10.0 ng/mL. The plate was incubated for 50 minutes on a MicroMix 5 shaker (Siemens) at room temperature and then 20 μL of 500 μg/mL M280-SA beads were added for an additional 10-minute incubation. The beads were washed once in 150 μL of a PBS-based buffer solution containing 1.8 mM KH2PO4, 10 mM Na2HPO4, 120 mM NaCl, 2.7 mM KCl, 0.033% Tween20 and 0.10% KATHON® CG/ICP II (Cat: 48178-U. Sigma, St. Louis, Mo.) and recovered by attaching a plate magnet to the 96-well plate (LIFESEP™ 96F, Dexter Magnetic Technologies Inc., Elk Grove Village, Ill. 60007). Beads were resuspended in 150 μL of the same PBS-based buffer and read in a M1MR Analyzer (Bioveris).

[2] = test system: FXa; test: Detecting FXa activity by detection of a neoepitope with TAG Plus anti-FLAG M1 detector antibody (ECL immunoassay)
Source text: FXa activity can be measured using peptides comprising a FXa recognition site (-IEGR-) (SEQ ID NO:1) at their N-terminus followed by an amino acid sequence which can be cleaved “off” by FXa. For example, peptide sequence III, below, can be cleaved by FXa to produce peptide sequence IV below. The FXa cleavage of the peptide bond after the arginine residue of the -IEGR- sequence (SEQ ID NO:1) produces a free NH2 group at the N-terminal of the peptide sequence (sequence IV) and the peptide sequence becomes a new epitope (neoepitope) after cleavage.
A FXa activity calibrator curve was set up in a 96-well U bottom microtiter plate containing 100 μL of a 3-fold serial dilution of FXa at 500, 167, 55.6, 18.5, 6.17, 2.06 and 0.686 ng/mL in an assay buffer [50 mM Tris-HCl (pH 7.4), 100 mM NaCl, 0.5% BSA, 10 mg/mL ciprofloxacin, 0.5% Tween-20 and 7.0 mM CaCl2] and 50 μL of a master mix of FXa detection reagent containing 200 μg/mL of M280-SA beads, 600 ng/mL of a peptide sequence V and 1000 ng/mL of TAG Plus anti-FLAG® M1 antibody (Example 2) in the same assay buffer. The peptide sequence V comprises peptide sequence III and a sequence HHHHHH(mPeg2)(KLCBiot)-amide (SEQ ID NO:9). The HHHHHH(mPeg2) (SEQ ID NO:9), a mini-PEG molecule with 9 carbon polyethylene molecule, serves as a spacer, which was conjugated with a lysine at its C-terminus. A biotin molecule was conjugated to the primary amine group on the side chain of the lysine. The peptide can be captured through the high affinity interaction between biotin and streptavidin molecule.
The plate was incubated on a hot plate (Digital Heatblock, Cat. 12621-100, VWR International, LLC., West Chester, Pa. 19380) at 37° C. for 10 or 20 minutes. After the incubation, the beads were washed once in 150 μL of the PBS-based buffer solution (Example 1) and recovered by attaching a plate magnet to the 96-well plate (LIFESEP™ 96F, Dexter Magnetic Technologies Inc., Elk Grove Village, Ill. 60007). Beads were resuspended in 150 μL of the PBS-based buffer and read in a M1MR analyzer. […] Under both incubation conditions, FXa activities were detectable at 1.00 ng/mL or lower concentrations of FXa (signal/background ≧3.0). This lower detection limit is unexpectedly much better than that achieved in Example 1.

[3] = test system: FXa; test: Detecting FXa activity by capturing the TAG-labeled neoepitope with anti-FLAG M1 beads (ECL)
Experimental: A FXa activity calibrator curve was set up in a 96-well U bottom microtiter plate containing 50 μL of a 3-fold serial dilution of FXa at 1000, 333, 111, 37.0, 12.3, 4.12 and 1.37 ng/mL in the assay buffer (Example 4) and 25 μL of NH2-IEGRDYKDDDDKGS-TAG (SEQ ID NO:5) (1.25, 2.5 or 5.0 μg/mL) in a hot plate at 37° C. for 10 minutes. After the incubation, 50 μL of Bi-anti-FLAG®-M1 antibody prebound beads (200 μg/mL concentration at the ratio of 10 μg of antibody per 1.0 mg of beads) were added, followed by an incubation for another 20 minutes at 37° C. After the incubation, the beads were washed once in 150 μL of the PBS-based buffer solution (Example 3) and were resuspended in 150 μL of the PBS-based buffer before beads were read in a M1MR analyzer (BioVeris).

[4] = 10 minute incubation, FXa 0.686 ng/mL
[5] = 10 minute incubation, FXa 2.06 ng/mL
[6] = 10 minute incubation, FXa 6.17 ng/mL
[7] = 10 minute incubation, FXa 18.5 ng/mL
[8] = 10 minute incubation, FXa 55.6 ng/mL
[9] = 10 minute incubation, FXa 167 ng/mL
[10] = 10 minute incubation, FXa 500 ng/mL
[11] = 20 minute incubation, FXa 0.686 ng/mL
[12] = 20 minute incubation, FXa 2.06 ng/mL
[13] = 20 minute incubation, FXa 6.17 ng/mL
[14] = 20 minute incubation, FXa 18.5 ng/mL
[15] = 20 minute incubation, FXa 55.6 ng/mL
[16] = 20 minute incubation, FXa 167 ng/mL
[17] = 20 minute incubation, FXa 500 ng/mL
[18] = substrate 1.25 μg/mL, FXa 1.37 ng/mL
[19] = substrate 1.25 μg/mL, FXa 4.12 ng/mL
[20] = substrate 1.25 μg/mL, FXa 12.3 ng/mL
[21] = substrate 1.25 μg/mL, FXa 37.0 ng/mL
[22] = substrate 1.25 μg/mL, FXa 111 ng/mL
[23] = substrate 1.25 μg/mL, FXa 333 ng/mL
[24] = substrate 1.25 μg/mL, FXa 1000 ng/mL
[25] = substrate 2.5 μg/mL, FXa 1.37 ng/mL
[26] = substrate 2.5 μg/mL, FXa 4.12 ng/mL
[27] = substrate 2.5 μg/mL, FXa 12.3 ng/mL
[28] = substrate 2.5 μg/mL, FXa 37.0 ng/mL
[29] = substrate 2.5 μg/mL, FXa 111 ng/mL
[30] = substrate 2.5 μg/mL, FXa 333 ng/mL
[31] = substrate 2.5 μg/mL, FXa 1000 ng/mL
[32] = substrate 5.0 μg/mL, FXa 1.37 ng/mL
[33] = substrate 5.0 μg/mL, FXa 4.12 ng/mL
[34] = substrate 5.0 μg/mL, FXa 12.3 ng/mL
[35] = substrate 5.0 μg/mL, FXa 37.0 ng/mL
[36] = substrate 5.0 μg/mL, FXa 111 ng/mL
[37] = substrate 5.0 μg/mL, FXa 333 ng/mL
[38] = substrate 5.0 μg/mL, FXa 1000 ng/mL

FXa, sequence (P00742 41-179 limits assumed): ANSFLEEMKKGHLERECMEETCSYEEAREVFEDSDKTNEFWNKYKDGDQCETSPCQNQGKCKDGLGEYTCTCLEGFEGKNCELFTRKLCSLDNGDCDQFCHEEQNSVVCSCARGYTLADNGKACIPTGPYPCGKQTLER
FXa, sequence (P00742 235-488 limits assumed): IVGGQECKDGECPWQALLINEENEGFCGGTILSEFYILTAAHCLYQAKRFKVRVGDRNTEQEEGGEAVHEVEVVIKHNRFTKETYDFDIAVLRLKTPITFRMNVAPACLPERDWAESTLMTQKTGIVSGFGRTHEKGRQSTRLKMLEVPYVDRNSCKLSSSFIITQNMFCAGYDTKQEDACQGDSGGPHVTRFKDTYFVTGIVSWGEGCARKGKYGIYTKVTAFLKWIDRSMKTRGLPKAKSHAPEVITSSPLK

Biotin-(mPeg2)IEGRGS (KBv TAG Plus) amide [Peptide Probe Sequence II]
% Signal Decrease ([1]; FXa 78.1 ng/mL): 0% | Mean Signal ([1]; FXa 78.1 ng/mL): 339795 | % Signal Decrease ([1]; FXa 156 ng/mL): −4% | Mean Signal ([1]; FXa 156 ng/mL): 325928 | % Signal Decrease ([1]; FXa 313 ng/mL): −11% | Mean Signal ([1]; FXa 313 ng/mL): 302632 | % Signal Decrease ([1]; FXa 625 ng/mL): −10% | Mean Signal ([1]; FXa 625 ng/mL): 305778 | % Signal Decrease ([1]; FXa 1250 ng/mL): −24% | Mean Signal ([1]; FXa 1250 ng/mL): 256745 | % Signal Decrease ([1]; FXa 2500 ng/mL): −39% | Mean Signal ([1]; FXa 2500 ng/mL): 208649 | % Signal Decrease ([1]; FXa 5000 ng/mL): −66% | Mean Signal ([1]; FXa 5000 ng/mL): 116839

Bz-IEGRDYKDDDDKGSHHHHHH(mPeg2)(KLCBiot)-amide ({Bz′}-IEGRDYKDDDDKGSHHHHHH-{mPeg2-KLCBiot-NH2}) [Peptide sequence V]
Mean Signal [2, 4]: 856 | Signal/Background [2, 4]: 2.5 | Mean Signal [2, 5]: 1427 | Signal/Background [2, 5]: 4.1 | Mean Signal [2, 6]: 3105 | Signal/Background [2, 6]: 9.0 | Mean Signal [2, 7]: 8793 | Signal/Background [2, 7]: 25 | Mean Signal [2, 8]: 33734 | Signal/Background [2, 8]: 98 | Mean Signal [2, 9]: 113240 | Signal/Background [2, 9]: 328 | Mean Signal [2, 10]: 298048 | Signal/Background [2, 10]: 864 | Mean Signal [2, 11]: 1047 | Signal/Background [2, 11]: 3.3 | Mean Signal [2, 12]: 2109 | Signal/Background [2, 12]: 6.6 | Mean Signal [2, 13]: 6035 | Signal/Background [2, 13]: 19 | Mean Signal [2, 14]: 20653 | Signal/Background [2, 14]: 65 | Mean Signal [2, 15]: 73974 | Signal/Background [2, 15]: 232 | Mean Signal [2, 16]: 224915 | Signal/Background [2, 16]: 706 | Mean Signal [2, 17]: 497703 | Signal/Background [2, 17]: 1562

NH2-IEGRDYKDDDDKGS-TAG (TAG label; includes cleavage recognition site and binding site for anti-FLAG antibody)
Mean Signal [3, 18]: 1140 | Signal/Background [3, 18]: 1.9 | Mean Signal [3, 19]: 2174 | Signal/Background [3, 19]: 3.7 | Mean Signal [3, 20]: 4437 | Signal/Background [3, 20]: 7.5 | Mean Signal [3, 21]: 10667 | Signal/Background [3, 21]: 18 | Mean Signal [3, 22]: 20521 | Signal/Background [3, 22]: 35 | Mean Signal [3, 23]: 52797 | Signal/Background [3, 23]: 89 | Mean Signal [3, 24]: 69011 | Signal/Background [3, 24]: 116 | Mean Signal [3, 25]: 1393 | Signal/Background [3, 25]: 1.6 | Mean Signal [3, 26]: 3828 | Signal/Background [3, 26]: 4.5 | Mean Signal [3, 27]: 7696 | Signal/Background [3, 27]: 9.0 | Mean Signal [3, 28]: 20144 | Signal/Background [3, 28]: 24 | Mean Signal [3, 29]: 41788 | Signal/Background [3, 29]: 49 | Mean Signal [3, 30]: 62747 | Signal/Background [3, 30]: 73 | Mean Signal [3, 31]: 78193 | Signal/Background [3, 31]: 91 | Mean Signal [3, 32]: 3725 | Signal/Background [3, 32]: 2.1 | Mean Signal [3, 33]: 6363 | Signal/Background [3, 33]: 3.6 | Mean Signal [3, 34]: 14866 | Signal/Background [3, 34]: 8.4 | Mean Signal [3, 35]: 32274 | Signal/Background [3, 35]: 18 | Mean Signal [3, 36]: 62147 | Signal/Background [3, 36]: 35 | Mean Signal [3, 37]: 78710 | Signal/Background [3, 37]: 45 | Mean Signal [3, 38]: 86900 | Signal/Background [3, 38]: 49

Biotin-IEGRGS (KBv TAG Plus) amide [Peptide Probe Sequence I]
% Signal Decrease ([1]; FXa 78.1 ng/mL): −3% | Mean Signal ([1]; FXa 78.1 ng/mL): 413958 | % Signal Decrease ([1]; FXa 156 ng/mL): −3% | Mean Signal ([1]; FXa 156 ng/mL): 413232 | % Signal Decrease ([1]; FXa 313 ng/mL): −9% | Mean Signal ([1]; FXa 313 ng/mL): 388137 | % Signal Decrease ([1]; FXa 625 ng/mL): −15% | Mean Signal ([1]; FXa 625 ng/mL): 363185 | % Signal Decrease ([1]; FXa 1250 ng/mL): −31% | Mean Signal ([1]; FXa 1250 ng/mL): 296182 | % Signal Decrease ([1]; FXa 2500 ng/mL): −53% | Mean Signal ([1]; FXa 2500 ng/mL): 202007 | % Signal Decrease ([1]; FXa 5000 ng/mL): −76% | Mean Signal ([1]; FXa 5000 ng/mL): 103604
